The target in one experiment is PIK3CD (Human) (UniProt O00329). The experiment is described as follows: Enzyme Assay.
A further experiment deals with PIK3CG (human) (UniProt P48736). The experiment is described as follows: Enzyme Assay.
The target of the next experiment is PIK3CA (human) (UniProt P42336). Nature of the experiment: Inhibition of PIK3CA Kinase Activity.
For another experiment, the target named is PIK3CB (Human) (UniProt P42338). Nature of the experiment: Inhibition of PIK3CB Kinase Activity.

Structures are written as SMILES.

Chain of PIK3CG (human) (P48736 whole entry, looked up): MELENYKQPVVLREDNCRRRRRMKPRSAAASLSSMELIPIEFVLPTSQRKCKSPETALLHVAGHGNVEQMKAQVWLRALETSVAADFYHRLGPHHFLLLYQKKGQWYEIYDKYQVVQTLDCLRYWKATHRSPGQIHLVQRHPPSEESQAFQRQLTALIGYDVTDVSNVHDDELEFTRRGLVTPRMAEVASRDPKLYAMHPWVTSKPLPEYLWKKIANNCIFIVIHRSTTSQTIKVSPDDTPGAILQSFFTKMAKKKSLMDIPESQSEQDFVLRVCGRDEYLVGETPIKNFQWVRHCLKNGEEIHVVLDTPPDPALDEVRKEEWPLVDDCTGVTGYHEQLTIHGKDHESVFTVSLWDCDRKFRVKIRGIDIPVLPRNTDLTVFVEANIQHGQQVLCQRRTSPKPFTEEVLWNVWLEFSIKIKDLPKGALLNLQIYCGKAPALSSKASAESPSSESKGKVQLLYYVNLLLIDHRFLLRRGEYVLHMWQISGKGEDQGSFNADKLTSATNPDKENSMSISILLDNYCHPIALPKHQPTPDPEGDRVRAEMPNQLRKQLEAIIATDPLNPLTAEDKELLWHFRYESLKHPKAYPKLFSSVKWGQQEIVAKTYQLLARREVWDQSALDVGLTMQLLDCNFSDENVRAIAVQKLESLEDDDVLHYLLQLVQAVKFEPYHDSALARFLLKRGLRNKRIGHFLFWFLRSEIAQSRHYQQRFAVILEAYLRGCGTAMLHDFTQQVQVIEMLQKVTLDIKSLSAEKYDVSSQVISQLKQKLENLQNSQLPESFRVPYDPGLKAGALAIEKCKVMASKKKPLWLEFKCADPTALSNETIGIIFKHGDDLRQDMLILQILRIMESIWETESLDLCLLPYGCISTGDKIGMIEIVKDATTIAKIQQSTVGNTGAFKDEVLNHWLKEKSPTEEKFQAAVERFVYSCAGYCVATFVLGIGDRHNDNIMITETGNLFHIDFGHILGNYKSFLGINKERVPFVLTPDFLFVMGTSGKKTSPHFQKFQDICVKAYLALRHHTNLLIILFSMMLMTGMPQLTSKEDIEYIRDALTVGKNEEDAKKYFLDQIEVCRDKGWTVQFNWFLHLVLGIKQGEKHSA
Chain of PIK3CB (Human) (P42338 whole entry, looked up): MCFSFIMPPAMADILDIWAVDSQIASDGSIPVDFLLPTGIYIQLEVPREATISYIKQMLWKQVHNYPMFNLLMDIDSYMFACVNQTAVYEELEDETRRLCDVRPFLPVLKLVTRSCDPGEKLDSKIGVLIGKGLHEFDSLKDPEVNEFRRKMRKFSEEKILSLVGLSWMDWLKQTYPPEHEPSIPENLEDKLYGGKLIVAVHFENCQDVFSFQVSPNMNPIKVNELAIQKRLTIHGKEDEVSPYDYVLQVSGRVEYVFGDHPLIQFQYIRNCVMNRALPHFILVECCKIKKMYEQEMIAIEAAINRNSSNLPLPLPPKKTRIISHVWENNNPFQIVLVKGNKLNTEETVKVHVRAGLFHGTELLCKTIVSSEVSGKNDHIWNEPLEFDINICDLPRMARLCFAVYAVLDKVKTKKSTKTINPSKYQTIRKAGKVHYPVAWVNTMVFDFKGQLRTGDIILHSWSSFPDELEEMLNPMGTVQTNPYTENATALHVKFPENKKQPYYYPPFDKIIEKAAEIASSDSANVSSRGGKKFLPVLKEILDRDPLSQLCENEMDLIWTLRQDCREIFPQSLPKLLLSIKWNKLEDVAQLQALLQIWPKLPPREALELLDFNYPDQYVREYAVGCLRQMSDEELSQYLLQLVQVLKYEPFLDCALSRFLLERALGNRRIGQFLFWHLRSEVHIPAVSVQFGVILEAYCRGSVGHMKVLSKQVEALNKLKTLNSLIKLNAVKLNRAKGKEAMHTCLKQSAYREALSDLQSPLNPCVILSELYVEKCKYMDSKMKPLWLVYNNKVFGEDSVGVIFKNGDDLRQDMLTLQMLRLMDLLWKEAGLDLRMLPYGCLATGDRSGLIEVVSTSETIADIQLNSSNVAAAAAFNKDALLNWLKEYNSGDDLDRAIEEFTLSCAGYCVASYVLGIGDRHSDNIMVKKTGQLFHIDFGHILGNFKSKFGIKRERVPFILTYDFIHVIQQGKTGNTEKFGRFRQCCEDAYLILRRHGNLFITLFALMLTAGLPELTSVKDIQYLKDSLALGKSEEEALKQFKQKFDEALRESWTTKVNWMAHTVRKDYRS
Chain of PIK3CA (human) (P42336 whole entry, looked up): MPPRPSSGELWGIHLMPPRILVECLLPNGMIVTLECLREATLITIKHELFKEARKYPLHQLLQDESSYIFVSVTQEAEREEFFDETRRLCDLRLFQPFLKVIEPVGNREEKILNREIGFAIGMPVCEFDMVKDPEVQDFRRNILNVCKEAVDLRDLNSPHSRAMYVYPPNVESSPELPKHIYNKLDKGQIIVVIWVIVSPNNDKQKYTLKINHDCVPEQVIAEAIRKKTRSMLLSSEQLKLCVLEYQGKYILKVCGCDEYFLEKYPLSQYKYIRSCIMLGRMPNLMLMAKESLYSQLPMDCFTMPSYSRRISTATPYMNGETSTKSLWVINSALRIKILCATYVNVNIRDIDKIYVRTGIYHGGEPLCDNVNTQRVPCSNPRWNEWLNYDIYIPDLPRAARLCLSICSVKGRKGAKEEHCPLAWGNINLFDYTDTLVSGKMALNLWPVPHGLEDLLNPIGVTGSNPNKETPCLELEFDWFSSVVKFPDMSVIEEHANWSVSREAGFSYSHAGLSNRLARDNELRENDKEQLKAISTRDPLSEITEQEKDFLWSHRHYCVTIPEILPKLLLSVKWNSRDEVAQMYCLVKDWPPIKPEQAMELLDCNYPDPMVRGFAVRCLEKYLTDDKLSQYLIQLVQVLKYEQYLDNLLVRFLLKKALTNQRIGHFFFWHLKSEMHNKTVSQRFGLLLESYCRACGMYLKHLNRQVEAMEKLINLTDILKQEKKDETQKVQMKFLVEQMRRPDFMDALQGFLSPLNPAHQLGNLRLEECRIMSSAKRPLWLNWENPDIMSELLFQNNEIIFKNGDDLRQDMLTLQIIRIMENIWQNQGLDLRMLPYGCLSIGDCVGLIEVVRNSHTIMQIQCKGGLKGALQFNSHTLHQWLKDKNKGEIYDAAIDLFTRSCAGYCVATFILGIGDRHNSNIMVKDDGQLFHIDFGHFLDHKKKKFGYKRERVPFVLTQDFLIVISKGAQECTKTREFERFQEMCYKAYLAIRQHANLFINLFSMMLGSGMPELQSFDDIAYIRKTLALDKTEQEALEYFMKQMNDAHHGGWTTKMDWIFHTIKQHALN
Chain of PIK3CD (Human) (O00329 whole entry, looked up): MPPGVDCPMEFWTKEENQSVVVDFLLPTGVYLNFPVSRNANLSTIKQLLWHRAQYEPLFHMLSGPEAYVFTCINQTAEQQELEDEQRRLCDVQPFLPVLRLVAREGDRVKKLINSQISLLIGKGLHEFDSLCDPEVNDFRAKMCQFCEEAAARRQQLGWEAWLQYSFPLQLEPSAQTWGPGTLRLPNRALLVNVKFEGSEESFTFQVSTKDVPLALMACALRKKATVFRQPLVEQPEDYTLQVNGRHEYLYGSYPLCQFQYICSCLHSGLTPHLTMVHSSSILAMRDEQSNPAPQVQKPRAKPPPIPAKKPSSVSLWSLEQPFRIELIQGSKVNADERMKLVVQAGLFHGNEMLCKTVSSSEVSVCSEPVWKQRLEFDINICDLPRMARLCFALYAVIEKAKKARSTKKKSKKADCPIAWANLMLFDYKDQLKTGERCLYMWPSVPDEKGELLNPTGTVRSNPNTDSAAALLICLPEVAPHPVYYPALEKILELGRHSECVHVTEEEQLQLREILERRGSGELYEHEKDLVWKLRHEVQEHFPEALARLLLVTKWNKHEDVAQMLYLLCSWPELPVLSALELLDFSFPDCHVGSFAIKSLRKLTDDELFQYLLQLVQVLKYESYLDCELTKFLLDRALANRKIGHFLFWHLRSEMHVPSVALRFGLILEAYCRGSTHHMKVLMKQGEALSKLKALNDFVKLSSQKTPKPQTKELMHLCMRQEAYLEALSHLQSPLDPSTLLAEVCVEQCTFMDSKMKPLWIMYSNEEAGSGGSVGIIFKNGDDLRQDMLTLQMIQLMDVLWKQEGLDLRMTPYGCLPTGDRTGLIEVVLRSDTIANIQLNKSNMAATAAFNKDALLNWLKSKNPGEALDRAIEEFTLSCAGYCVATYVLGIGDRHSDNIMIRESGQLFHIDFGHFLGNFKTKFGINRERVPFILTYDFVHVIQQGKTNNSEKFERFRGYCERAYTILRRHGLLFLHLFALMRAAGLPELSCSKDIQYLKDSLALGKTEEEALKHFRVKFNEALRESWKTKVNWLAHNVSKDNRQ

With `CNC(=O)Nc1nc2ccc(-c3cn(C4CCN(C(C)=O)CC4)c4ncnc(N)c34)cc2s1`, the IC50 against PIK3CD (Human) is not above 50 nM; on PIK3CG (human), not above 50 nM; against PIK3CA (human) it was not above 50 nM; against PIK3CB (Human) it was 50 to 100 nM.

For the compound `CNC(=O)Nc1nc2ccc(-c3cn(C(C)C)c4ncnc(N)c34)cc2s1`, the half-inhibitory concentration (IC50) against PIK3CD (Human), at PIK3CG (human), at PIK3CA (human) and against PIK3CB (Human) was not above 50 nM each time.

With `CC(=O)Nc1nc2ccc(-c3nn(C4CCOCC4)c4ncnc(N)c34)cc2s1`, the IC50 against PIK3CD (Human) was not above 50 nM; on PIK3CG (human) it was not above 50 nM; at PIK3CA (human) it was 100 to 500 nM.

`CC(C)n1nc(-c2cc3cccc(O)c3[nH]2)c2c(N)ncnc21`: the IC50 at PIK3CD (Human) and on PIK3CG (human) was 100 to 500 nM each time.

For `CC(=O)Nc1nc2ccc(-c3nn(C(C)C)c4ncnc(N)c34)cc2s1`, the IC50 on PIK3CD (Human) is not above 50 nM; at PIK3CG (human), not above 50 nM; against PIK3CA (human) it was 100 to 500 nM.

Take `CNC(=O)Nc1nc2ccc(-c3nn(C(C)C)c4ncnc(N)c34)cc2s1`: the half-maximal inhibitory concentration (IC50) on PIK3CD (Human), on PIK3CG (human) and at PIK3CA (human) was not above 50 nM each time.

Regarding `CC(=O)Nc1nc2ccc(-c3nn(C4CCC4)c4ncnc(N)c34)cc2s1`, the IC50 on PIK3CD (Human) is 50 to 100 nM; at PIK3CG (human), not above 50 nM; on PIK3CA (human) it was 50 to 100 nM.

Consider `CC(C)n1nc(-c2cc3cc(O)cc(F)c3[nH]2)c2c(N)ncnc21`, for which the figures for the half-inhibitory concentration (IC50) on PIK3CD (Human) and against PIK3CG (human) were 50 to 100 nM and 100 to 500 nM, respectively.

At PIK3CA (human), `CC(C)n1nc(-c2ccc3nc(NC(=O)C4CC4)sc3c2)c2c(N)ncnc21` had an IC50 of 500 to 1000 nM.

Turning to `CCn1nc(-c2ccc3nc(NC(C)=O)sc3c2)c2c(N)ncnc21`, the IC50 was not above 50 nM against PIK3CD (Human), not above 50 nM against PIK3CG (human) and 50 to 100 nM against PIK3CA (human).

With `CC(C)n1nc(-c2cc3ccc(O)cc3[nH]2)c2c(N)ncnc21`, the IC50 on PIK3CD (Human), on PIK3CG (human) and against PIK3CA (human) was 100 to 500 nM in each case.

Turning to `CC(C)n1nc(-c2ccc3nc(N)sc3c2)c2c(N)ncnc21`, the IC50 against PIK3CD (Human) is 50 to 100 nM; on PIK3CG (human), not above 50 nM; against PIK3CA (human) it was 100 to 500 nM.

`CNc1nc2ccc(-c3nn(C(C)C)c4ncnc(N)c34)cc2s1`: the IC50 was 100 to 500 nM against PIK3CD (Human), not above 50 nM against PIK3CG (human) and 50 to 100 nM against PIK3CA (human).

As to `CNC(=O)Nc1nc2ccc(-c3cn(C4CCOCC4)c4ncnc(N)c34)cc2s1`, the half-maximal inhibitory concentration (IC50) at PIK3CD (Human), against PIK3CG (human), at PIK3CA (human) and against PIK3CB (Human) was not above 50 nM throughout.

For the compound `CCNc1nc2ccc(-c3nn(C(C)C)c4ncnc(N)c34)cc2s1`, the IC50 on PIK3CD (Human) fell in the range of 500 to 1000 nM; against PIK3CG (human), 100 to 500 nM; at PIK3CA (human), 100 to 500 nM.

Consider `CCC(=O)Nc1nc2ccc(-c3nn(C(C)C)c4ncnc(N)c34)cc2s1`, for which the IC50 at PIK3CA (human) is 100 to 500 nM.

For the compound `CC(=O)Nc1nc2ccc(-c3nn(C4CCCC4)c4ncnc(N)c34)cc2s1`, the IC50 against PIK3CD (Human), at PIK3CG (human) and against PIK3CA (human) was not above 50 nM in each case.

On to `CC(C)n1nc(-c2cc3cc(O)cc(Cl)c3[nH]2)c2c(N)ncnc21`, for which the IC50 against PIK3CD (Human) and at PIK3CG (human) was 25 to 50 nM each time.

As to `CC(C)n1nc(-c2ccc3nc(NCCO)sc3c2)c2c(N)ncnc21`, on PIK3CA (human), the IC50 is 500 to 1000 nM.

As to `CC(=O)Nc1nc2ccc(-c3nn(C)c4ncnc(N)c34)cc2s1`, the IC50 against PIK3CA (human) fell in the range of 500 to 1000 nM.

By IC50 is commonly meant the concentration needed to halve the response being measured.

Values taken from the Kinase Knowledgebase extract (Sharma et al. 2016).
